# Data taken from patent US20220105054A1, “ABSORPTION ENHANCER OF CINNAMIC ACID DERIVATIVE” (YAMADA BEE COMPANY, INC., priority 2020, published 2022).
# Where two headings read alike, the source gives them in different places.
# Conditions: rat, in vivo; for AUC Mean ± SD / Cmax Mean ± SD: po, 50 mg/kg
# Procedure: The following administration liquids were prepared. 10% propylene glycol: a propylene glycol liquid having a concentration of 10% was prepared by diluting propylene glycol with distilled water.
# Propolis solution: the required amount of propolis powder (Brazilian green propolis) was weighed and ground in a mortar, and the 10% propylene glycol was added to dissolve the powder to prepare a propolis solution with a concentration of 25 mg/mL as the propolis concentration.
# Curcumin suspension: the required amount of curcumin powder (C. longa extract (ethyl acetate extract powder, curcumin content of 95% by mass)) was weighed and ground in a mortar, and then the 10% propylene glycol was added to suspend the powder to prepare a curcumin suspension with a curcumin concentration of 100 mg/mL.
# Eighteen 7-week-old male rats (Slc: Wistar/ST, SPF, Japan SLC, Inc.) were acclimated for 7 days. The rats were allowed to freely ingest the solid feed CRF-1 (Oriental Yeast Co., ltd.). The rats were fasted for 8 to 10 hours before the administration of the administration liquids. The rats were divided into three groups of six rats each by a stratified allocation method using EXSUS (Version 10.0.0, EP Croit Co., Ltd.) so that the weight of each group was equal.
# In the propolis group, the propolis solution was administered immediately after the administration of 10% propylene glycol. In the propolis+curcumin A group, the propolis solution was administered immediately after the administration of the curcumin suspension. In the propolis+curcumin B group, the propolis solution was administered about 30 minutes after the administration of the curcumin suspension. The administration was carried out in a volume of 2 ml/kg rat body weight for each administration solution. In other words, 50 mg of propolis and 200 mg of curcumin were administered per 1 kg of rat body weight. The administration was carried out under no anesthesia by using a syringe (Terumo Corporation) and an oral feeding needle for rats (Fuchigami Kikai, Ltd).
# Blood collection of rats was carried out once 30 minutes before the administration of propolis solution (but before the administration of curcumin suspension in the group with the curcumin suspension administrated) and 0.5, 1, 1.5, 2, 3, 6, 9, and 24 hours after the administration of propolis solution. At each blood sampling time, the tail of rats was disinfected with 70% ethanol under no anesthesia, and then the tip of the tail was cut with a razor to collect about 150 μL of leaking blood by using a hematocrit tube (Fisher Scientific 22-362-566). Nine hours after administration of the propolis solution, feeding was resumed for all fasting animals.
# The blood, which had been stored in ice after collection, was centrifuged (1600 ×g, 10 min, 4° C.) using a micro high-speed cooling centrifuge (model MX-100: Tomy Seiko Co., Ltd.) to collect plasma from the blood. The plasma was frozen and stored in a −80° C. freezer.
# The concentrations of p-coumaric acid, artepillin C, drupanin, culifolin, capillartemisin A, 3,4-dihydroxy-5-prenyl-(E)-cinnamic acid, and 2,2-dimethylchromene-6-(E)-propenoic acid, kaempferide, 6-methoxy kaempferide, and dihydro kaempferide in the resulting plasma were quantified by LCMS.
# For each ingredient, the maximum blood concentration (Cmax) and the area under the curve (AUC) were calculated from the resulting concentrations. AUC is an indicator of the total amount of each ingredient absorbed into the body. […] The ratio in the table indicates the ratio of the mean value of the propolis+curcumin A group to that of the propolis group. Statistics were carried out by t-test.
Compound,AUC Ratio,Cmax Ratio,AUC Mean ± SD,Cmax Mean ± SD,"AUC Ratio (male, Slc: Wistar/ST)","Cmax Ratio (male, Slc: Wistar/ST)",increase in absorption compared to the propolis group
"CC1(C)C=Cc2cc(/C=C/C(=O)O)ccc2O1 [2,2-dimethylchromene-6-(E)-propenoic acid]",1.27,1.56,84.5 ± 4.49,18.48 ± 4.02,,,
"CC(C)=CCc1cc(/C=C/C(=O)O)cc(O)c1O [3,4-dihydroxy-5-prenyl-(E)-cinnamic acid]",,,51.02 ± 28.27,7.5 ± 7.5,1.25,1.53,
"COc1ccc(-c2oc3cc(O)c(OC)c(O)c3c(=O)c2O)cc1 [6-methoxy kaempferide, reference compound]",,,,,,,no significant increase in absorption was observed
CC(C)=CCc1cc(/C=C/C(=O)O)cc(CC=C(C)C)c1O [Artepillin C],1.39,1.7,811.33 ± 191.31,77.7 ± 13.11,,,
CC(C)=CCc1cc(/C=C/C(=O)O)cc(C/C=C(\C)CO)c1O [Capillartemisin A],1.83,1.91,109.74 ± 12.25,10.39 ± 2.01,,,
CC(C)=CCc1cc(/C=C/C(=O)O)cc2c1OC(C)(C)C=C2 [Culifolin],1.26,1.34,1088.92 ± 68.35,68.98 ± 5.16,,,
CC(C)=CCc1cc(/C=C/C(=O)O)ccc1O [Drupanin],1.41,1.98,486.19 ± 34.29,93.12 ± 19.93,,,
"COc1ccc(C2Oc3cc(O)cc(O)c3C(=O)C2O)cc1 (stereo not shown) [dihydro kaempferide, reference compound]",,,,,,,no significant increase in absorption was observed
"COc1ccc(-c2oc3cc(O)cc(O)c3c(=O)c2O)cc1 [kaempferide, reference compound]",,,,,,,no significant increase in absorption was observed
O=C(O)/C=C/c1ccc(O)cc1 [p-Coumaric acid],,,983.44 ± 372.02,343.72 ± 41.6,1.07,1.42,
